Drawing on ChEMBL document CHEMBL1131971, “Identification and initial structure-activity relationships of a novel non-peptide quinolone GnRH receptor antagonist” (Bioorg Med Chem Lett, 1999), this text covers IC50 and inhibition for 38 compounds.

In one experiment the target is T1, Gonadotropin-releasing hormone receptor (Rattus norvegicus, UniProt P30969).
T1 sequence (P30969 whole entry): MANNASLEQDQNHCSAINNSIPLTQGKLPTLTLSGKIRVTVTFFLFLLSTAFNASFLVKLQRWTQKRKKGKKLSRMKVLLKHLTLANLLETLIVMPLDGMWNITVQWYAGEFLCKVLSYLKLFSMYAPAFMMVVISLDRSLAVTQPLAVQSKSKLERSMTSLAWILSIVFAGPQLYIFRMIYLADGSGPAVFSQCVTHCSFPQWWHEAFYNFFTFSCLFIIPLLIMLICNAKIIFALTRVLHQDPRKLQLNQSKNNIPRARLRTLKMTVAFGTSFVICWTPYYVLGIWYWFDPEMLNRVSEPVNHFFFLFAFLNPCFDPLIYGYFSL
The experiment can be described thus: Inhibition of [125I]buserelin to GnRH receptor in rat pituitary membranes. It is filed as cell membranes, Membrane.
Conditions: not given
With `Cc1cc(C)cc(-c2c(O)nc3cc(Cl)ccc3c2OCC2CN(C)CCO2)c1` (stereo not drawn), the IC50 (as a rule, the concentration at which inhibition is half-maximal) came out at 1400 nM.
The compound `Cc1cc(C)cc(-c2c(OCCC3CCCCN3C)c3ccc(Br)cc3[nH]c2=O)c1` (stereo not drawn) gave an IC50 of 150 nM.
On the same count and under the same terms, with `CN(C)CCCOc1c(-c2ccccc2)c(O)nc2cc(Cl)ccc12` the figure was 9000 nM; with `Oc1nc2cc(Cl)ccc2c(OCc2ccccn2)c1-c1ccccc1`, 10000 nM; with `Cc1cc(C)cc(-c2c(OCCC3CCCCN3C)c3ccc(Cl)cc3[nH]c2=O)c1` (stereo not drawn), 200 nM.
As to `Cc1cc(C)cc(-c2c(OCC3CCCN(C)C3)c3ccc(Cl)cc3[nH]c2=O)c1` (stereo not drawn), half-maximal inhibition (IC50) was put at 300 nM.
In turn, `Cc1cc(C)cc(-c2c(OCCC3CCCCN3C)c3cc([N+](=O)[O-])c(Cl)cc3[nH]c2=O)c1` (stereo not drawn) returned an IC50 of 32 nM.
For `Cc1cc(C)cc(-c2c(OCCCN3CCCCC3)c3ccc(Cl)cc3[nH]c2=O)c1`, the IC50 came out at 7500 nM.
Still for that read-out and setting: then `Cc1cc(C)cc(-c2c(O)nc3cc(Cl)ccc3c2OC2CCCN(C)CC2)c1` (stereo not drawn), with 300 nM.
Compound `Cc1cc(C)cc(-c2c(O)nc3cc([N+](=O)[O-])ccc3c2OCC2CCCN(C)C2)c1` (stereo not drawn) registered an IC50 of 1400 nM.
As to `Cc1cc(C)cc(-c2c(OC3CCN(C)CC3)c3ccc(Cl)cc3[nH]c2=O)c1`, the IC50 came out at 1300 nM.
`CN1CCCCC1COc1c(-c2ccccc2)c(=O)[nH]c2cc(Cl)ccc12` (stereo not drawn): inhibition was half-maximal at 9000 nM (IC50).
`Cc1cc(C)cc(-c2c(O)nc3cc(Cl)ccc3c2OCC2CCCCN2C)c1` (stereo not drawn) displayed an IC50 of 4000 nM.
`Cc1cc(C)cc(-c2c(O)nc3cc(Cl)ccc3c2OCCC2CCCN2C)c1` (stereo not drawn) displayed an IC50 of 200 nM.
In turn, `CN1CCCC(COc2c(-c3ccccc3)c(O)nc3cc(Cl)ccc23)C1` (stereo not drawn) registered an IC50 of 4000 nM.
In turn, `CN1CCCCC(Oc2c(-c3ccccc3)c(O)nc3cc(Cl)ccc23)C1` (stereo not drawn) displayed an IC50 of 7000 nM.
The compound `Cc1cc(C)cc(-c2c(OCC3CCCN(C)C3)c3ccc(C)cc3[nH]c2=O)c1` (stereo not drawn) had an IC50 of 3900 nM.
As to `Cc1cc(C)cc(-c2c(O)nc3cc(Cl)ccc3c2OCC2CCN(C)C2)c1` (stereo not drawn), the IC50 was 500 nM.
In the case of `Cc1cc(C)cc(-c2c(O)nc3cc(Cl)ccc3c2OCC(C)CN(C)C)c1` (stereo not drawn), the IC50 amounted to 6300 nM.
In turn, `Cc1cc(C)cc(-c2c(O)nc3cc(Cl)ccc3c2OCC2CCCNC2)c1` (stereo not drawn) yielded an IC50 of 500 nM.
`Cc1cc(C)cc(-c2c(OCCC3CCCCN3C)c3ccc(C(F)(F)F)cc3[nH]c2=O)c1` (stereo not drawn) displayed an IC50 of 100 nM.
With `Cc1cc(C)cc(-c2c(O)nc3cc(Cl)ccc3c2OCC2CCCCN(C)C2)c1` (stereo not drawn), the IC50 was determined as 1300 nM.

The target of another experiment is T2, Gonadotropin-releasing hormone receptor (Rattus norvegicus) (UniProt P30969).
T2 sequence (whole entry): T1 sequence (P30969 whole entry)
The experiment can be described thus: Inhibitory activity at GnRH receptor in rat pituitary membranes. The settings on record: concentration not given here. The format is cell membranes. On the set-up: concentration or dose not given beside the values.
For the compound `Oc1nc2cc(Cl)ccc2c(OCc2ccccc2)c1-c1ccccc1`, the inhibition (as a rule, the drop in the measured response relative to a control, in per cent) was less than 50%.
In turn, `COC(=O)c1ccc2c(OCC3CCCN(C)C3)c(-c3cc(C)cc(C)c3)c(O)nc2c1` (stereo not drawn) showed an inhibition of less than 50%.
Still for that read-out and setting: with `Cc1cc(C)cc(-c2c(O)nc3ccc([N+](=O)[O-])cc3c2OCC2CCCN(C)C2)c1` (stereo not drawn) the figure was less than 50%; with `CN(C)CCOc1c(-c2ccccc2)c(O)nc2cc(Cl)ccc12`, less than 50%.
Turning to `O=C1c2ccccc2C(=O)N1CCCOc1c(-c2ccccc2)c(O)nc2cc(Cl)ccc12`, the inhibition is less than 50%.
In turn, `Oc1nc2cc(Cl)ccc2c(OCc2cccnc2)c1-c1ccccc1` gave an inhibition of less than 50%.
`COc1ccc2nc(O)c(-c3cc(C)cc(C)c3)c(OCC3CCCN(C)C3)c2c1` (stereo not drawn): the inhibition was less than 50%.
As for `Oc1nc2cc(Cl)ccc2c(OCc2ccc3ccccc3n2)c1-c1ccccc1`, the inhibition is less than 50%.
In turn, `Cc1cc(C)cc(-c2c(O)nc3cc(Cl)ccc3c2OCC2CCNCC2)c1` registered an inhibition of less than 50%.
Consider `Cc1cc(C)cc(-c2c(O)nc3ccc(Cl)cc3c2OCC2CCCN(C)C2)c1` (stereo not drawn), for which the inhibition was less than 50%.
Still for that read-out and setting: with `NCCCOc1c(-c2ccccc2)c(O)nc2cc(Cl)ccc12` the figure was less than 50%; with `Cc1cc(C)cc(-c2c(O)nc3c(Cl)cccc3c2OCC2CCCN(C)C2)c1` (stereo not drawn), less than 50%.
`Cc1cc(C)cc(-c2c(O)nc3cc(F)ccc3c2OCC2CCCN(C)C2)c1` (stereo not drawn) came in with an inhibition of less than 50%.
`Cc1cc(C)cc(-c2c(O)nc3ccc(C)cc3c2OCC2CCCN(C)C2)c1` (stereo not drawn) had an inhibition of less than 50%.
In the case of `Cc1cc(C)cc(-c2c(O)nc3cccc(Cl)c3c2OCC2CCCN(C)C2)c1` (stereo not drawn), the inhibition is less than 50%.
`Oc1nc2cc(Cl)ccc2c(OCc2ccncc2)c1-c1ccccc1` registered an inhibition of less than 50%.
